These results are taken from patent CN101260112A, “含噻吩并[3.2-c]吡啶的乙酰肼衍生物及其制备方法和用途” (Tianjin Institute of Pharmaceutical Research Co Ltd, priority 2008, dated 2008).

Structures are written as SMILES.

The assay deals with ADP-induced platelet aggregation (ADP诱导的血小板聚集). The experiment in a line: Effect of compounds of formula I on ADP-induced platelet aggregation (rats dosed orally, turbidimetric method). The following applies: male Wistar rat, 10 mg/kg oral gavage, blood taken 2 h after dosing, inducer ADP (final concentration 5 μM), turbidimetry, 37℃; for inhibition at 10 mg/kg: Platelet, vs control, read-out: inhibition rate; for maximum aggregation: control 54.8±5.8. In kind it is in vivo.

`NNC(=O)C(c1ccc(F)cc1)N1CCc2sccc2C1` (stereo not drawn) [化合物1, α,α-[(4-氟苯基)-(4,5,6,7-四氢噻吩并[3,2-c]吡啶-5-基)]乙酰肼]: the inhibition (commonly the share of the control response that was lost under treatment) at 10 mg/kg is 48.2% and the maximum aggregation is listed as 28.4±8.1.
The corresponding values for `CC(C)=NNC(=O)C(c1ccc(Cl)cc1)N1CCc2sccc2C1` (stereo not drawn) [化合物2, α,α-[(4-氯苯基)-(4,5,6,7-四氢噻吩并[3,2-c]吡啶-5-基)]-N′-(二甲基甲叉基)乙酰肼] are 58.8% and 22.6±3.9.
For `O=C(NN=Cc1ccccc1Cl)C(c1cccc(Cl)c1)N1CCc2sccc2C1` (stereo not drawn) [化合物3, α,α-[(3-氯苯基)-(4,5,6,7-四氢噻吩并[3,2-c]吡啶-5-基)]-N′-[(2-氯苯基)甲叉基]乙酰肼], in that order: 18.2% and 44.8±11.1.
For `Cc1ccc(C=NNC(=O)C(c2ccc(Cl)cc2)N2CCc3sccc3C2)cc1` (stereo not drawn) [化合物4, α,α-[(4-氯苯基)-(4,5,6,7-四氢噻吩并[3,2-c]吡啶-5-基)]-N′-[(4-甲基苯基)甲叉基]乙酰肼], in that order: 34.3% and 36.0±6.9.
`O=C(NN=Cc1ccccc1O)C(c1cccc(F)c1)N1CCc2sccc2C1` (stereo not drawn) [化合物5, α,α-[(3-氟苯基)-(4,5,6,7-四氢噻吩并[3,2-c]吡啶-5-基)]-N′-[(2-羟基苯基)甲叉基]乙酰肼]: the inhibition at 10 mg/kg amounted to 33.5% and the maximum aggregation came to 38.7±10.6.
For the compound `COc1ccc(C=NNC(=O)C(c2cccc(F)c2)N2CCc3sccc3C2)cc1` (stereo not drawn) [化合物6, α,α-[(3-氟苯基)-(4,5,6,7-四氢噻吩并[3,2-c]吡啶-5-基)]-N′-[(4-甲氧基苯基)甲叉基]乙酰肼], the inhibition at 10 mg/kg worked out at 32.5% and the maximum aggregation came to 33.9±12.3.
The corresponding values for `O=C(NN=Cc1cccc([N+](=O)[O-])c1)C(c1ccc(Cl)c(Cl)c1)N1CCc2sccc2C1` (stereo not drawn) [化合物7, α,α-[(3,4-二氯苯基)-(4,5,6,7-四氢噻吩并[3,2-c]吡啶-5-基)]-N′-[(3-硝基苯基)甲叉基]乙酰肼] are 23.3% and 36.0±9.3.
Consider `O=C(NN=Cc1ccc(-c2ccc(Cl)cc2)o1)C(c1cccc(Cl)c1)N1CCc2sccc2C1` (stereo not drawn) [化合物8, α,α-[(3-氯苯基)-(4,5,6,7-四氢噻吩并[3,2-c]吡啶-5-基)]-N′-[[5-(4-氯苯)呋喃-2-基]甲叉基]乙酰肼], for which the inhibition at 10 mg/kg is 64.4% and the maximum aggregation stood at 38.7±10.9.
The corresponding values for `O=C(NN=Cc1ccco1)C(c1cccc(F)c1)N1CCc2sccc2C1` (stereo not drawn) [化合物9, α,α-[(3-氟苯基)-(4,5,6,7-四氢噻吩并[3,2-c]吡啶-5-基)]-N′-[(呋喃-2-基)甲叉基]乙酰肼] are 28.6% and 41.0±13.4.
The corresponding values for `CCCCc1nc(Cl)c(C=NNC(=O)C(c2cccc(Cl)c2)N2CCc3sccc3C2)[nH]1` (stereo not drawn) [化合物10, α,α-[(3-氯苯基)-(4,5,6,7-四氢噻吩并[3,2-c]吡啶-5-基)]-N′-[[(2-正丁基-4-氯-咪唑-5-基)甲叉基]乙酰肼] are 39% and 42.9±12.6.
For `O=C(NN=C1CCCCC1)C(c1cccc(Cl)c1)N1CCc2sccc2C1` (stereo not drawn) [化合物11, α,α-[(3-氯苯基)-(4,5,6,7-四氢噻吩并[3,2-c]吡啶-5-基)]-N′-(环己叉基)乙酰肼], in that order: 43.1% and 31.2±12.1.
As for `O=C(NN=C1CCCc2ccccc21)C(c1ccc(Cl)cc1)N1CCc2sccc2C1` (stereo not drawn) [化合物12, α,α-[(4-氯苯基)-(4,5,6,7-四氢噻吩并[3,2-c]吡啶-5-基)]-N′-(α-四氢萘叉基)乙酰肼], the inhibition at 10 mg/kg came to 35.3% and the maximum aggregation was found to be 36.2±7.4.
In the case of `COC(=O)[C@H](c1ccccc1Cl)N1CCc2sccc2C1` [硫酸氯吡格雷, reference compound], the maximum aggregation worked out at 9.1±3.5.
